In ChEMBL document CHEMBL1133779, “A refined 3-dimensional QSAR of cytochrome P450 2C9: computational predictions of drug interactions” (J Med Chem, 2000):

Target: T1, Cytochrome P450 2C9 (Homo sapiens, UniProt P11712)
Assay: Binding affinity was measured on Cytochrome P450 2C9
Assay type: ADME

T1 sequence (P11712 whole entry): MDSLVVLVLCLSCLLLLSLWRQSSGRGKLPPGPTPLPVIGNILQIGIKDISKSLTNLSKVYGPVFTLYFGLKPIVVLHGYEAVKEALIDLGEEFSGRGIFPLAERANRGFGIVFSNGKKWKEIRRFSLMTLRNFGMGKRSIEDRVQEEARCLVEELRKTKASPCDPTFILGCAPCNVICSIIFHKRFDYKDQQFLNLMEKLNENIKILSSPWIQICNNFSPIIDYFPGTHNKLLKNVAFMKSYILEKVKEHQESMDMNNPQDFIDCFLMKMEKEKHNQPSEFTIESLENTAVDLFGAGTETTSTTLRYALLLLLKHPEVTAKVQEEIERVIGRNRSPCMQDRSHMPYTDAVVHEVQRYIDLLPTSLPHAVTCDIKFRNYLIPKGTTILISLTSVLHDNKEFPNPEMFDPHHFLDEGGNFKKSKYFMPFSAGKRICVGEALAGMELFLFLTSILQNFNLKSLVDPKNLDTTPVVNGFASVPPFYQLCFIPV

Structure (SMILES) | Ki [µM]
COc1c([C@H](CC(C)=O)c2ccccc2)c(=O)oc2ccccc12 (stereo in doubt; 15) | 2.4
CC[C@H](c1ccccc1)c1c(OC)oc2ccccc2c1=O | 14
CC[C@@H](c1ccccc1)c1c(OC)c2ccccc2oc1=O | 6
C#Cc1ccc2oc(O)c(C(C(C)=O)c3ccccc3)c(=O)c2c1 (stereo unspecified) | 1.5
[N-]=[N+]=Nc1ccc2oc(O)c(Cc3c(O)oc4ccc(N=[N+]=[N-])cc4c3=O)c(=O)c2c1 | 3
CO[C@@]1(C)C[C@@H](c2ccccc2)c2c(c3ccccc3oc2=O)O1 (stereo in doubt; 6) | 1.1
C[C@@H](O)C[C@H](c1ccccc1)c1c(O)oc2ccccc2c1=O | 3
CO[C@@]1(C)C[C@@H](c2ccccc2)c2c(c3ccccc3oc2=O)O1 (stereo in doubt; 4) | 7
CC[C@H](c1ccccc1)c1c(OC)c2ccccc2oc1=O | 13
CC[C@H](c1ccccc1)c1c(O)oc2ccccc2c1=O (stereo in doubt; 8) | 0.5
C[C@@H](O)C[C@@H](c1ccccc1)c1c(O)oc2ccccc2c1=O | 0.1
C[C@H](O)C[C@@H](c1ccccc1)c1c(O)oc2ccccc2c1=O | 3
CC1(O)C[C@H](c2ccccc2)c2c(c3ccccc3oc2=O)O1 (stereo partly specified) | 7
COc1c([C@H](CC(C)=O)c2ccccc2)c(=O)oc2ccccc12 (stereo in doubt; 14) | 10
CC[C@@H](c1ccccc1)c1c(OC)oc2ccccc2c1=O | 0.1
[N-]=[N+]=Nc1ccc(S(=O)(=O)Nc2ccnn2-c2ccccc2)cc1 | 0.4
CO[C@@]1(C)C[C@H](c2ccccc2)c2c(c3ccccc3oc2=O)O1 | 1.5
C#Cc1ccc2c(=O)c(C(C(C)=O)c3ccccc3)c(O)oc2c1 (stereo unspecified) | 1.1
CO[C@]1(C)C[C@@H](c2ccccc2)c2c(c3ccccc3oc2=O)O1 | 20
CC1(O)C[C@@H](c2ccccc2)c2c(c3ccccc3oc2=O)O1 (stereo partly specified) | 25
C[C@H](O)C[C@H](c1ccccc1)c1c(O)oc2ccccc2c1=O | 0.4
CC[C@H](c1ccccc1)c1c(O)oc2ccccc2c1=O (stereo in doubt; 9) | 18

Target: T1, Cytochrome P450 2C9
Assay: Binding affinity for human Cytochrome P450 2C9
Assay type: ADME

Structure (SMILES) | Ki [µM]
COc1oc2ccccc2c(=O)c1[C@H](CC(C)=O)c1ccccc1 | 29

Target: T1, Cytochrome P450 2C9
Assay: Binding affinity measured on human cytochrome P450 2C9 (CYP2C9) enzyme

Structure (SMILES) | Ki [µM]
O=C(O)Cc1ccccc1Nc1cc(Cl)ccc1Cl | 2
C#Cc1ccc(S(=O)(=O)NC(=O)NCc2ccccc2)cc1 | 25
CC(C(=O)O)c1ccc(C(=O)c2cccs2)cc1 (stereo unspecified) [SUPROFEN] | 45
O=S(=O)(Nc1ccnn1-c1ccccc1)c1ccccc1 | 2
C#Cc1ccc(S(=O)(=O)Nc2cc(C)on2)cc1 | 3
CC(=O)c1ccc(S(=O)(=O)Nc2ccnn2-c2ccccc2)cc1 | 2.4
C#Cc1ccc(S(=O)(=O)NC(=O)Nc2ccccc2)cc1 | 7
O=S(=O)(Nc1ccnn1-c1ccccc1)c1ccc(O)cc1 | 6
COc1oc2ccccc2c(=O)c1[C@@H](CC(C)=O)c1ccccc1 | 21
C#Cc1ccc(C2(c3ccccc3)NC(=O)NC2=O)cc1 (stereo unspecified) | 18
C#Cc1ccc(S(=O)(=O)NC(=O)NCC(C)C)cc1 | 48
C#Cc1ccc(S(=O)(=O)NC(=O)NCCCC)cc1 | 18
Cc1ccc(C)c(OCC(C)(C)C(=O)O)c1 | 15
